Measured values as given in US8420836B2, “NFAT signal inhibitor and hair-growing agent” (Kao Corporation, priority 2008, dated 2013).
“Also recorded” adds a separate entry of the source.

How the values were obtained:
[1] = system: swine hair follicles; test: Evaluation of hair shaft elongation by swine hair follicle organ culture; assay type: cell-based; conditions: isolated pig hair follicles cultured 8 days; solvent control (ethanol) taken as 100%; FIG. 6
Procedure: Evaluation of Hair Shaft Elongation by Swine Hair Follicle Organ Culture
The skin of buttocks of a pig for meat was separated into an appropriate size, and excess fatty tissue was removed. The pigskin was disinfected by immersing in a hibitane solution (5% hibitane solution (Dainippon Sumitomo Pharma Co., Ltd.) diluted to 5 to 20 times with water) for 5 minutes to 10 minutes under sterile conditions, and after that was washed several times with D-PBS. Subsequently, hair follicles were isolated from the washed pigskin under a stereoscopic microscope, and the hair follicles were collected in William's Medium E (Invitrogen) medium. […]
The component A and component B obtained in Example 1 were added to the above-mentioned medium, and the system was cultured for 8 days, together with an ethanol-added group, which was a solvent control. Stereomicroscopic images of the culture were captured on the day of culture initiation (zeroth day) and on the eighth day with a CCD camera (Pixera Model No. PVC 100C), and from those images, the length from the base of the hair bulb to the tip of the hair shaft was measured. Thereafter, the hair shaft elongation ratios of the component A and component B obtained in Example 1 were calculated, with the amount of hair shaft elongation of the solvent control group before and after culture being taken as 100%.

[2] = system: NFAT signal; test: NFAT signal inhibitory effect: pNFAT-Luc luciferase reporter assay with ionomycin stimulation; assay type: cell-based, human; conditions: HEK293 cells transfected with pNFAT-Luc; 1 μM ionomycin; assay after 8 hours; FIG. 4
Procedure: (1) Materials and Methods for Evaluation System
In this evaluation system, human kidney (HEK293) cells were purchased from ATCC (American Type Culture Collection) and used. HEK293 cells were cultured in DMEM (High glucose, 10% heat-inactivated FBS) under the conditions of 37° C. and 5% CO2.
In this evaluation system, HEK293 cells transfected with a plasmid having firefly luciferase introduced into the downstream of the NFAT-binding sequence, pNFAT-Luc (Stratagene), were used. More specifically, pNFAT-Luc (Stratagene), in which firefly luciferase gene was introduced in the downstream of 4 copies of the NFAT-binding sequence, was transfected into HEK293 cells for an evaluation of the NFAT transcription activity. Furthermore, for the purpose of eliminating fluctuation due to the transfection efficiency, pRL-CMV (Promega) having Renilla luciferase introduced in the downstream of CMV promoter, was simultaneously transfected so as to correct for the signal derived from firefly luciferase.
Transfection was carried out using LipofectAMINE 2000 reagent (Invitrogen) according to the manual. The medium was exchanged eight hours after the transfection, and the system was incubated overnight. Thereafter, the component A, component B and component C obtained in Example 1, and the deacylation product of the component A prepared in Example 3 were added thereto, and further after one hour, 1 μM ionoinycin was added thereto. After 8 hours, a luciferase reporter assay was carried out.
Luciferase Reporter Assay
The luciferase reporter assay was carried out using Dual-Glo Luciferase Assay System (Promega) according to the manual. That is, the medium was removed, and then Dual-Glo luciferase reagent which had been diluted two times with PBS, was added thereto. The system was stirred, and after 20 minutes, the firefly luciferase activity was measured. Thereafter, an equal amount of Dual-Glo Stop&Glo reagent was added to the system, the mixture was stirred, and then the Renilla luciferase activity was measured. The luciferase activity measurement was carried out using MiniLumat LB 9506 (EG&G Berthold), and the amount of luminescence by luciferase was quantitatively detected. For both luciferases, the duration for luciferase activity measurement was set to 2 seconds.
Calculation of NFAT Signal Inhibitory Rate.
All of the NFAT transcription activity values (firefly luciferase activity) were corrected by dividing the values of the Renilla luciferase activity introduced for the transfection efficiency correction. Thereafter, the NFAT signal inhibitory rate was calculated by the following expression.
NFAT signal inhibitory rate (%)=100−(Test sample and ionomycin-added group−non-stimulation group)/(Ionomycin only-added group−non-stimulation group)×100

Row | Structure (SMILES) | hair shaft elongation ratio (hair-growing effect) [1] | NFAT signal inhibitory rate [2]
1 | C/C=C(/C)C(=O)OC1c2c(ccc3ccc(=O)oc23)O[C@@H]1C(C)(C)OC(=O)/C(C)=C\C (stereo partly drawn) [component A, archangelicin] | significant hair shaft elongation | inhibited the NFAT signal; also recorded: strong NFAT signal inhibitory activity
2 | C/C=C(/C)C(=O)OC1c2c(ccc3ccc(=O)oc23)OC1C(C)(C)OC(=O)CC(C)C (stereo not drawn) [component B, 3′-angeloyloxy-4′-isovaleryloxy-2′,3′-dihydrooroselol] | significant hair shaft elongation | inhibited the NFAT signal; also recorded: strong NFAT signal inhibitory activity
3 | C/C=C(/C)C(=O)OC1c2c(ccc3ccc(=O)oc23)O[C@@H]1C(C)(C)OC(=O)C=C(C)C (stereo partly drawn) [component C, 3′-angeloyloxy-4′-senecioyloxy-2′,3′-dihydrooroselol] |  | inhibited the NFAT signal; also recorded: strong NFAT signal inhibitory activity
4 | C/C=C(/C)C(=O)OC(C)(C)[C@H]1Oc2ccc3ccc(=O)oc3c2[C@H]1O [deacylation product of the component A, 3′-hydroxy-4′-angeloyloxy-2′,3′-dihydrooroselol] |  | inhibited the NFAT signal
